# From patent US12109197B2, “Combinations of β-lactam compounds and probenecid and uses thereof” (Iterum Therapeutics International Limited, priority 2018, dated 2024)
# Values joined by “and” are separate entries in the source; they are usually repeats but may differ in a detail not shown here. Equal entries are not always repeated. Where two headings read alike, the source gives them in different places.
# What was measured:
# [1] = format: in vivo, human; conditions: for Tlast / Tmax: median; for TAMIC1: minimum concentration 0.5 μg/mL; for TAMIC2: minimum concentration 1.0 μg/mL
# Protocol: A Phase 1, randomized, investigator-blind, subject-blind, sponsor-open, placebo-controlled, single and multiple dose study of Compound II-2b was further conducted. There were 6 planned cohorts of subjects. Each cohort was planned to enroll 12 subjects, for a total of 72 planned subjects. Subjects in the multidose cohort were dosed for 10 days; new subjects were recruited for each cohort. Subjects in these cohorts, on Days 1 through 9, were dosed BTD (12 hours apart) at approximately 0800 and 2000 hours. On Day 10, subjects were to be dosed only once at approximately 0800 hours.
# [2] = format: in vivo, human; conditions: for TAMIC0.5 / TAMIC1.0 / Tmax: median; for Ae24%: percent of administered dose, adjusted for MW; for CLr: renal clearance; for Ae24: urine over 24 hours postdose
# Source text: The pharmacokinetics of Compound III-2b wer studies in a randomized, subject-blinded, investigator- and sponsor-open, placebo-controlled, multiple-dose study, run in parallel cohorts. There were 7 cohorts of approximately 10 subjects each (4:1 active:placebo).
# [3] = for Cmax / TAMIC0.5 / TAMIC1.0 / Tmax / AUCtau / AUCinf / AUClast / t1/2: plasma; for Tmax: median (minimum-maximum); for AUCtau: time 0 to 12 hours
# Protocol: Subjects were to be dosed twice a day (every 12 hours) for 6 days and on Day 7 they were to be dosed once. All treatment groups could be run in parallel or sequentially. Subjects were allocated based on the randomization list. Randomization numbers were assigned sequentially as subjects entered into groups on the basis of their order of entry into the study. Subjects who withdrew for reasons unrelated to safety may have been replaced. Blood samples were obtained at prespecified intervals in order to characterize pharmacokinetics.
# [4] = 2000 mg BID, Study Day 1, plasma
# [5] = 2000 mg BID, Study Day 10, plasma
# [6] = Cohort 2: 1 g BID, fasted, Day 1
# [7] = Cohort 2: 1 g BID, fasted, Day 7
# [8] = Cohort 3: 1.5 g BID, fed, Day 1
# [9] = Cohort 3: 1.5 g BID, fed, Day 7
# [10] = Cohort 4: 0.5 g BID, fasted, Day 1
# [11] = Cohort 4: 0.5 g BID, fasted, Day 7
smiles,measurement,setting,value
"CCC(CC)C(=O)OCOC(=O)C1=C(S[C@H]2CC[S@@+]([O-])C2)S[C@@H]2[C@@H]([C@@H](C)O)C(=O)N12 [Compound III-2b, Sulopenem Etzadroxil]",AUCinf,[1]; [4],18100 ng·h/mL
same,AUCtau,[1]; [4],17500 ng·h/mL
same,Cmax,[1]; [4],6090 ng/mL
same,t1/2,[1]; [4],1.66 h
same,Tlast,[1]; [4],8.00 h
same,Tmax,[1]; [4],1.00 h
same,TAMIC1,[1]; [4],6.93
same,TAMIC2,[1]; [4],5.57
same,Ae %,"[1]; 2000 mg BID, Study Day 6, urine, percent of sulopenem dose excreted",17.3 (26) %
same,Ae24,"[1]; 2000 mg BID, Study Day 6, urine, sulopenem excreted unchanged over 24 hours",253000 (26) ug
same,Rac,"[1]; 2000 mg BID, Study Day 10, accumulation ratio",0.685
same,AUCtau,[1]; [5],12200 ng·h/mL
same,Cmax,[1]; [5],5480 ng/mL
same,Ctrough,[1]; [5],0.00 ng/mL
same,t1/2,[1]; [5],1.27 h
same,Tlast,[1]; [5],8.00 h
same,Tmax,[1]; [5],1.00 h
same,TAMIC1,[1]; [5],4.70
same,TAMIC2,[1]; [5],3.61
same,AUCtau,"[1]; 2000 mg, Day 1",17500 ng·h/mL
same,AUCtau,"[1]; 2000 mg, Day 10",12200 ng·h/mL
same,AUCinf,"[2]; 500 mg FED, Day 1",3400 ng·h/mL
same,AUCinf,"[2]; 500 mg FED, Day 7",2990 ng·h/mL
same,AUCinf,"[2]; 1000 mg FED, Day 1",9430 ng·h/mL
same,AUCinf,"[2]; 1000 mg FED, Day 7",7800 ng·h/mL
same,AUCinf,"[2]; 1000 mg TID FED, Day 1",8290 ng·h/mL
same,AUCinf,"[2]; 1000 mg TID FED, Day 7",6750 ng·h/mL
same,AUCinf,"[2]; 1000 mg, Day 1",6680 ng·h/mL
same,AUCinf,"[2]; 1000 mg, Day 7",6020 ng·h/mL
same,AUCinf,"[2]; 1500 mg, Day 1",12900 ng·h/mL
same,AUCinf,"[2]; 1500 mg, Day 7",9950 ng·h/mL
same,AUCinf,"[2]; Cohort 1: 1 g BID, fed, Day 1",9430 (13) ng · h/mL
same,AUClast,"[2]; Cohort 1: 1 g BID, fed, Day 1",9330 (13) ng · h/mL
same,Cmax,"[2]; Cohort 1: 1 g BID, fed, Day 1",4420 (24) ng/mL
same,t½,"[2]; Cohort 1: 1 g BID, fed, Day 1",0.823 (13) h
same,TAMIC0.5,"[2]; Cohort 1: 1 g BID, fed, Day 1",4.35 h
same,TAMIC1.0,"[2]; Cohort 1: 1 g BID, fed, Day 1",3.21 h
same,Tmax,"[2]; Cohort 1: 1 g BID, fed, Day 1",1.50 h
same,AUCinf,"[2]; Cohort 1: 1 g BID, fed, Day 7",7800 (17) ng · h/mL
same,AUClast,"[2]; Cohort 1: 1 g BID, fed, Day 7",7670 (17) ng · h/mL
same,Cmax,"[2]; Cohort 1: 1 g BID, fed, Day 7",3770 (23) ng/mL
same,t½,"[2]; Cohort 1: 1 g BID, fed, Day 7",0.761 (11) h
same,Rac,"[2]; Cohort 1: 1 g BID, fed, Day 7, accumulation ratio",0.832 (13)
same,TAMIC0.5,"[2]; Cohort 1: 1 g BID, fed, Day 7",3.32 h
same,TAMIC1.0,"[2]; Cohort 1: 1 g BID, fed, Day 7",2.64 h
same,Tmax,"[2]; Cohort 1: 1 g BID, fed, Day 7",2.00 h
same,Ae24%,"[2]; Cohort 1: 1 g BID, fed, Day 7",19.0 (27) %
same,CLr,"[2]; Cohort 1: 1 g BID, fed, Day 7",17.4 (19) L/h
same,Ae24,"[2]; Cohort 1: 1 g BID, fed, Day 7",138.7 (27) mg
same,AUCinf,[2]; [6],6680 (20) ng · h/mL
same,AUClast,[2]; [6],6770 (22) ng · h/mL
same,Cmax,[2]; [6],2760 (13) ng/mL
same,t½,[2]; [6],1.37 (33) h
same,TAMIC0.5,[2]; [6],3.69 h
same,TAMIC1.0,[2]; [6],2.91 h
same,Tmax,[2]; [6],1.50 h
same,AUCinf,[2]; [7],6020 (16) ng · h/mL
same,AUClast,[2]; [7],6070 (19) ng · h/mL
same,Cmax,[2]; [7],2410 (33) ng/mL
same,t½,[2]; [7],1.08 (24) h
same,Rac,"[2]; Cohort 2: 1 g BID, fasted, Day 7, accumulation ratio",0.910 (11)
same,TAMIC0.5,[2]; [7],4.18 h
same,TAMIC1.0,[2]; [7],2.72 h
same,Tmax,[2]; [7],1.75 h
same,Ae24%,[2]; [7],10.2 (23) %
same,CLr,[2]; [7],12.2 (30) L/h
same,Ae24,[2]; [7],74.4 (23) mg
same,AUCinf,[2]; [8],12900 (23) ng · h/mL
same,AUClast,[2]; [8],12100 (21) ng · h/mL
same,Cmax,[2]; [8],3700 (42) ng/mL
same,t½,[2]; [8],1.20 (14) h
same,TAMIC0.5,[2]; [8],6.34 h
same,TAMIC1.0,[2]; [8],4.81 h
same,Tmax,[2]; [8],2.50 h
same,AUCinf,[2]; [9],9950 (15) ng · h/mL
same,AUClast,[2]; [9],9710 (15) ng · h/mL
same,Cmax,[2]; [9],2670 (28) ng/mL
same,t½,[2]; [9],0.901 (14) h
same,Rac,"[2]; Cohort 3: 1.5 g BID, fed, Day 7, accumulation ratio",0.809 (14)
same,TAMIC0.5,[2]; [9],5.96 h
same,TAMIC1.0,[2]; [9],4.44 h
same,Tmax,[2]; [9],2.51 h
same,AUCinf,[2]; [10],3400 (20) ng · h/mL
same,AUClast,[2]; [10],3260 (22) ng · h/mL
same,Cmax,[2]; [10],1470 (34) ng/mL
same,t½,[2]; [10],0.862 (19) h
same,TAMIC0.5,[2]; [10],2.66 h
same,TAMIC1.0,[2]; [10],1.38 h
same,Tmax,[2]; [10],1.03 h
same,AUCinf,[2]; [11],2990 (23) ng · h/mL
same,AUClast,[2]; [11],2730 (27) ng · h/mL
same,Cmax,[2]; [11],1310 (22) ng/mL
same,t½,[2]; [11],0.797 (16) h
same,Rac,"[2]; Cohort 4: 0.5 g BID, fasted, Day 7, accumulation ratio",0.873 (29)
same,TAMIC0.5,[2]; [11],2.38 h
same,TAMIC1.0,[2]; [11],0.803 h
same,Tmax,[2]; [11],1.50 h
same,AUCinf,"[2]; Cohort 7: 1 g TID, fed, Day 1",8290 (6) ng · h/mL
same,AUClast,"[2]; Cohort 7: 1 g TID, fed, Day 1",7670 (13) ng · h/mL
same,Cmax,"[2]; Cohort 7: 1 g TID, fed, Day 1",3320 (36) ng/mL
same,t½,"[2]; Cohort 7: 1 g TID, fed, Day 1",1.26 (40) h
same,TAMIC0.5,"[2]; Cohort 7: 1 g TID, fed, Day 1",4.90 h
same,TAMIC1.0,"[2]; Cohort 7: 1 g TID, fed, Day 1",3.32 h
same,Tmax,"[2]; Cohort 7: 1 g TID, fed, Day 1",1.75 h
same,AUCinf,"[2]; Cohort 7: 1 g TID, fed, Day 7",6750 (11) ng · h/mL
same,AUClast,"[2]; Cohort 7: 1 g TID, fed, Day 7",6230 (16) ng · h/mL
same,Cmax,"[2]; Cohort 7: 1 g TID, fed, Day 7",2090 (28) ng/mL
same,t½,"[2]; Cohort 7: 1 g TID, fed, Day 7",0.790 (2) h
same,Rac,"[2]; Cohort 7: 1 g TID, fed, Day 7, accumulation ratio",0.827 (21)
same,TAMIC0.5,"[2]; Cohort 7: 1 g TID, fed, Day 7",4.62 h
same,TAMIC1.0,"[2]; Cohort 7: 1 g TID, fed, Day 7",3.22 h
same,Tmax,"[2]; Cohort 7: 1 g TID, fed, Day 7",4.00 h
same,Rac,[2]; in vivo,1.10 (24)
same,"AUCtau, GM","[3]; Day 7, With Probenecid",5325.20 ng·h/mL
same,"Cmax, GM","[3]; Day 7, With Probenecid",1532.10 ng/mL
same,"AUCtau, GM","[3]; Day 7, Without Probenecid",3084.36 ng·h/mL
same,"Cmax, GM","[3]; Day 7, Without Probenecid",1233.18 ng/mL
same,AUC of sulopenem on Day 7 compared with Day 1,[3]; administered alone through the oral route,lower than that on Day 1
same,AUC of sulopenem on Day 7 compared with Day 1,[3]; co-administered with probenecid,increased on Day 7 beyond that seen on Day 1
same,Cmax,"[3]; fasted, Day 1",1699.1 (31.64) ng/mL
same,TAMIC0.5,"[3]; fasted, Day 1",2.6348 (14.85) h
same,TAMIC1.0,"[3]; fasted, Day 1",1.0758 (94.61) h
same,Tmax,"[3]; fasted, Day 1",1.0000 (0.4830-2.017) h
same,AUCtau,"[3]; fasted, Day 1",3623.8 (19.19) hr*ng/mL and 3623.8 hr*ng/mL
same,AUCinf,"[3]; fasted, Day 7",2627.8 (18.89) hr*ng/mL
same,AUClast,"[3]; fasted, Day 7",2607.4 (19.10) hr*ng/mL
same,Cmax,"[3]; fasted, Day 7",1289.4 (39.17) ng/mL
same,TAMIC0.5,"[3]; fasted, Day 7",2.1088 (16.74) h
same,TAMIC1.0,"[3]; fasted, Day 7",0.732 (62.70) h
same,t1/2,"[3]; fasted, Day 7",0.9376 (15.34) h
same,Tmax,"[3]; fasted, Day 7",0.9915 (0.5000-1.033) h
same,AUCtau,"[3]; fasted, Day 7",2626.3 (18.89) hr*ng/mL and 2626.3 hr*ng/mL
same,Cmax,"[3]; fed, Day 1",1730.9 (46.66) ng/mL
same,TAMIC0.5,"[3]; fed, Day 1",3.0103 (31.13) h
same,TAMIC1.0,"[3]; fed, Day 1",2.0882 (25.12) h
same,Tmax,"[3]; fed, Day 1",1.000 (1.5000-2.983) h
same,AUCtau,"[3]; fed, Day 1",4413.7 (27.00) hr*ng/mL
same,AUCinf,"[3]; fed, Day 7",3712.7 (24.27) hr*ng/mL
same,AUClast,"[3]; fed, Day 7",3537 (25.01) hr*ng/mL
same,Cmax,"[3]; fed, Day 7",1179.4 (25.94) ng/mL
same,TAMIC0.5,"[3]; fed, Day 7",2.8507 (31.48) h
same,TAMIC1.0,"[3]; fed, Day 7",1.3191 (62.54) h
same,t1/2,"[3]; fed, Day 7",0.9114 (26.68) h
same,Tmax,"[3]; fed, Day 7",1.483 (2.0000-4.000) h
same,AUCtau,"[3]; fed, Day 7",3706.4 (24.21) hr*ng/mL
